The source of these data is patent publication US6958360B2, “Attractant pheromone for the Colorado potato beetle” (The United States of America as represented by the …, priority 2001, dated 2005).

Assay [1] relates to antennal olfactory receptors (short sensillum on the penultimate antennal segment of a CPB). The assay can be described thus: Single sensillum (single cell) recording of receptor neuron response. Also on record: species or system Leptinotarsa decemlineata. The note with it: 100 ng source load; solvent control 8. Here is the method:
Sensitivity of antennal olfactory receptors for the racemate and optical isomers of the male specific compound were tested using coupled GC/EAD and single sensillum recording techniques. GC/EAD tests involved injection of 1 μl of serial dilutions of 3,7-dimethyl-2-oxo-oct-6-ene-1,3-diol (CPB I).

Assay [2] relates to Colorado potato beetle (CPB). The assay can be described thus: Open Y-track olfactometer laboratory behavioral bioassay, pheromone and plant volatile blends. It counts as in vivo, Leptinotarsa decemlineata. Here is the method:
Insects: All life stages were reared on potted potato plants kept in screened cages inside incubators set for 16L:8D, 25° C. during photophase, 23° C. during scotophase, and 80% R.H. Upon emergence adult beetles were kept individually in plastic cups with perforated plastic snap-on lids, and provided with clean pieces of paper toweling and potato foliage daily.
Bioassay apparatus and protocol: Stock solutions of test compounds, e.g. (S)-CPB I, and individual plant volatiles 2-phenylethanol, nonanal and (±)-linalool, were prepared at 10 μg/μl in hexane. Serial dilutions were made to obtain a test solution of 0.1 μg/μl. Each bioassay treatment of CPB I used a 10 μl aliquot of test solution, or a total of 1 μg of neat material. A […] stock solution of a 3-component blend of selected potato volatiles, (Z)-3-hexenyl acetate, linalool, and methyl salicylate, was prepared as follows: 8.3 μl of each was added to 975 μl of mineral oil, creating a solution of 25 μg of blend components/μl. This stock solution was diluted to obtain a solution of 2.5 μg of blend components/μl. Each bioassay treatment of blend used a 20 μl aliquot of test solution, or a total of 50 μg (16.67 μg/component) of the components.
Prior to testing at age 7-14 days, unmated insects were held individually in 5.5 oz. cups, provided with fresh potato foliage on a continuous basis, and maintained under incubator conditions of 16L:8D, 80-90% R.H., and “day” and “night” temperatures of 25° C. and 23° C., respectively. On the day of testing, insects were transferred to smaller 1 oz. cups and held for 1-3 hrs with moist filter paper but no foliage, then held in darkness for an additional 1-2 hrs.
Individual chemicals and chemical blends were tested for activity in an open Y-track olfactometer modified after Visser and Piron (1998) and described in detail by Dickens (1999; 2000; and Dickens, J. C., et al., Breaking a paradigm: male-produced aggregation pheromone for Colorado potato beetle. Journal of Experimental Biology, 205: 1925-1933 (2002)). In brief, odorous stimuli emanating from synthetic blends on filter paper discs (2.5 cm dia.; Whatman™ #1 filter paper) in 500 ml Ehrlenmeyer flasks were delivered to either side of the device. Test odorants were pipetted onto 3-cm diam. filter paper disks, which were then transferred, using long forceps, into the Erlenmeyer flasks used in the assay. If only a single test solution were being used per treatment, it was placed in the center of the filter paper; if 2 test solutions were being used per treatment, the mineral oil solution was placed in the center, and the hexane solution was spotted around the edge of the filter paper disk. Treatments were replaced after 30 minutes of testing in order to minimize variation in odor concentrations. The location of the chemical blend was switched from one side of the bioassay apparatus to the other side midway through each run in order to avoid bias not associated with the experimental treatment. Hydrocarbon free air that was humidified by passing through distilled water carried the odor molecules to either arm of the bioassay apparatus. Airflow was regulated to 1 l/min by flow meters. Experiments were conducted in a darkened room at 22° C. in which the only source of light was that associated with the bioassay device. For all bioassays at least 40 adults (20 males and 20 females) were tested. Orientation was scored as soon as the test insect had moved completely from the horizontal to one of the 45° angle extension arms of the bioassay device. Following each test, the bioassay device was cleaned with acetone to remove contamination left by the insect.
Statistical analysis: Laboratory bioassays were assessed for significant differences by the hypothesis on binomial proportions based on the standard normal approximation (Brase and Brase, 1983).

In assay [3] the test system is Colorado potato beetle (CPB). The assay can be described thus: Field test, baited pitfall traps. It counts as in vivo, Leptinotarsa decemlineata. How it is done: Insects: Insects were maintained under the same regimen as for laboratory bioassays. Prior to release in the field, adult CPB were combined into pint containers with moistened paper and potato foliage in groups of 25. Insects were removed from foliage ca. 3 hours prior to release.
Chemical treatments: (S)-CPB I vs. control. CPB I was dissolved into a carrier solution of 20% polyethylene glycol, 42% methanol, 25% glycerol, and 13% distilled water at a concentration of 1 μg/μl. For treatment lures, 500 μl were injected into 1″ long cigarette filters (500 μg CPBI/lure). Control lures consisted of 1″ cigarette filters treated with 500 μl of the carrier solution. Lures were prepared and placed into plastic zip-lock bags for transport to the field. (S)-CPB I+3-component plant blend vs. 3-component plant blend. (Z)-3-hexenyl acetate, (±)-linalool, and methyl salicylate (10 μl each) were added to 3 ml of the carrier solution for a total concentration of 1%. This solution was split into two 1.5 ml samples and CPB I dissolved into one of the samples at a concentration of 1 μg/μl. One treatment consisted of 500 μl of 1% 3-component plant blend injected into 1″ cigarette filters, 500 μl of 1% 3-component plant blend+1 μg/μl CPB I (500 μg CPB I/lure) injected into 1″ cigarette filters comprised the second treatment. Lures were prepared and placed into zip-lock bags for transport to the field.
Experimental procedure: Six pitfall traps (22 cm diam.×21 cm depth) were set in a hexagonal pattern 6 m diameter in an isolated grass field mowed one day prior to release of insects. One lure was attached to a 1 m vertical yellow posts set through the center of each pitfall trap, with treatment and controls alternating around the hexagonal array. Tacky-trap was laced along the rim of each pitfall trap, and on the center post at trap level, to prevent insect escape. […]
Statistical analysis: Field tests were assessed for significant differences by a paired t-test (Ostle, B., Statistics in Research (1963), 2nd ed., The Iowa State University Press, Ames, Iowa).

Entries after “also recorded” stand apart in the source; their conditions may differ. Marks after values point to notes of the source that are not given here.

Take `CC(C)=CCC[C@](C)(O)C(=O)CO` [(S)-CPB I, (S)-3,7-dimethyl-2-oxo-oct-6-ene-1,3-diol]: in assay [1], the “action potentials during 500 msec following the initial phasic increase” value amounted to 25 action potentials. Further, in assay [2] (B = Control (solvent)), the “Female % to A.” value is recorded as 90%**, the “Male % to A.” value was determined as 90%** and the “Total % to A.” value amounted to 90%**. In assay [2] (B = Plant blend), the “Female % to A.” value came out at 50%, the “Male % to A.” value turned out to be 50% and the “Total % to A.” value amounted to 50%. The “attraction / preference (in words)” value in assay [2] (comparator as in the treatment pair of Table 2) is “attracted both male and female beetles; also recorded: no preference was shown for either attractant”. Further, the “Mean number of CPB captured, Males” value in assay [3] (500 μg CPB I/lure, mean of three replicates, 100 released, control 2.67) is 9.00*. Moreover, the “Mean number of CPB captured, Females” value in assay [3] (500 μg CPB I/lure, mean of three replicates, control 1.33) is given as 7.33*. For the same compound, in assay [3] (combined mean of six replicates, control 2.00), the “Mean number of CPB captured, Total” value is listed as 8.17**.
